Test results from patent US20060281071A1, “Stearoyl-CoA desaturase assay” (priority 2005, published 2006).

Legend:
Conditions in all cases: Hela microsomes 100 μg, 14C-acyl-CoA, NADH (FIG. 3)
mSCD4 = assay: Δ9-desaturase activity in microsomes of Hela cells over-expressing mSCD4; assay type: biochemical, mouse
Procedure: (§1) HeLa cells were cultured at 37° C. in a humidified 5% CO2 atmosphere in Dulbecco's modified Eagle's medium supplemented with 10% (v/v) fetal bovine serum and penicillin/streptomycin. The cells were resuspended in cytomix buffer (120 mM KCl, 0.15 mM CaCl2, 25 mM Hepes/KOH, pH 7.6, 2 mM EGTA, 5 mM MgCl2), and 400 μl of suspension was transferred to a 0.4-cm electroporation cuvette (Invitrogen). 35 μg of pcDNA3 DNA harboring either human or mouse SCD constructs were transfected into Hela cells which have very low Δ9-desaturase activity. DNA was added to the cell suspension in the cuvette and mixed well. The mixture was then exposed to a single electric pulse of 300 V with a capacitance of 1000 microfarads using an Invitrogen pulse system. The cells were allowed to recover in culture medium at 37° C. (5% CO2 atmosphere) for 48 h before harvesting and performing SCD activity assays.
(§2) Δ9-desaturase activity: Microsomes were purified from Hela cells by differential centrifugation and resuspended in a 0.1 M potassium phosphate buffer (pH 6.8). Δ9-desaturase activity was assayed at 25° C. for 7 minutes with either [^14C] stearoyl-CoA or [^14C] palmito-CoA, 2 mM NADH, and 100 μg microsomal protein (Miyazaki, M. et al. (2001) J Biol Chem 276, 39455-39461).

hSCD5 = biological target: T1, hSCD5 (Homo sapiens, UniProt Q86SK9); assay: Δ9-desaturase activity in microsomes of Hela cells over-expressing hSCD5; assay type: biochemical; parameters: Cloning of the full-length human and mouse SCD cDNAs: The full coding region of human SCDs; expressed in transfected cells
T1 sequence (Q86SK9 1-330): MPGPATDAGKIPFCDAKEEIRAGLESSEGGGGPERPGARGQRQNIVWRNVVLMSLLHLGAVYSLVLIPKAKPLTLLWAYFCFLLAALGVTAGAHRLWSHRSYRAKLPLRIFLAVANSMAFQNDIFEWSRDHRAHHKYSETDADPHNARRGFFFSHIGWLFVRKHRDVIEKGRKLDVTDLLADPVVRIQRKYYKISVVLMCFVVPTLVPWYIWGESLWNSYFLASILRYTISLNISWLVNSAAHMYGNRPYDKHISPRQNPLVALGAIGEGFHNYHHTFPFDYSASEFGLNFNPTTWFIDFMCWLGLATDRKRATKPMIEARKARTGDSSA
Procedure: as §1, §2

mSCD1 = biological target: T2, mSCD1 (Mus musculus, UniProt P13516); assay: Δ9-desaturase activity in microsomes of Hela cells over-expressing mSCD1; assay type: biochemical
T2 sequence (P13516 1-355): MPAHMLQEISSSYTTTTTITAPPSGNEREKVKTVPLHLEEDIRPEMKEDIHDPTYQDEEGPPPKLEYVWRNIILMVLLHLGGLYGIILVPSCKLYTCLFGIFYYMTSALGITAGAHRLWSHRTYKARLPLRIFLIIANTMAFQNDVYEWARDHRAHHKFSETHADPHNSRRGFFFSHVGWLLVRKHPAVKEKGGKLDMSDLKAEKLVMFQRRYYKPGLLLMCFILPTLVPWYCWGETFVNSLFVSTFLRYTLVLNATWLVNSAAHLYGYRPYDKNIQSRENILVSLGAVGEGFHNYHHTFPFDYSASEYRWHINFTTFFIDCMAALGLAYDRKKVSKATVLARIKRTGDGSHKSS
Procedure: as §1, §2

hSCD1 = biological target: T3, hSCD1 (Homo sapiens, UniProt O00767); assay: Δ9-desaturase activity in microsomes of Hela cells over-expressing hSCD1; assay type: biochemical; parameters: Cloning of the full-length human and mouse SCD cDNAs: The full coding region of human SCDs; expressed in transfected cells
T3 sequence (O00767 1-359): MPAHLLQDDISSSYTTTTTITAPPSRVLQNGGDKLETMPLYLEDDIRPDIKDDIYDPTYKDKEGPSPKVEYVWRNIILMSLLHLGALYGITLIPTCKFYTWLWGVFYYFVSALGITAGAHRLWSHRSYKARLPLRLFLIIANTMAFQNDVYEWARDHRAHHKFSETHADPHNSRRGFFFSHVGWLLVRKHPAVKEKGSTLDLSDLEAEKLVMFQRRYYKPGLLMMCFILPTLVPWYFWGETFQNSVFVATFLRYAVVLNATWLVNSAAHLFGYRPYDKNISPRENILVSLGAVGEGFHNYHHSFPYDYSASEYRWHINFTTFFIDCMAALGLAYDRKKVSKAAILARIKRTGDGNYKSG
Procedure: as §1, §2

mSCD2 = biological target: T4, mSCD2 (Mus musculus, UniProt P13011); assay: Δ9-desaturase activity in microsomes of Hela cells over-expressing mSCD2; assay type: biochemical
T4 sequence (P13011 1-358): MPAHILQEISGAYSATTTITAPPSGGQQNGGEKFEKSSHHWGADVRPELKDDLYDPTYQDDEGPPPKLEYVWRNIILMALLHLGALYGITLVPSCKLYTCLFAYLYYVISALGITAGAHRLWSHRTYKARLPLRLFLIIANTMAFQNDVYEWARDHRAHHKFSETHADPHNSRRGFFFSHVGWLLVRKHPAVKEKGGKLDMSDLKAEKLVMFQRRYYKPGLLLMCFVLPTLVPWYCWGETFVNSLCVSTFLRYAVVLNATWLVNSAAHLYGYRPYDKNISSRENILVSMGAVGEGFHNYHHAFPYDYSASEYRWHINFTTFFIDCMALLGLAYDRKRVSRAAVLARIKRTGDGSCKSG
Procedure: as §1, §2

In the case of `CCCCCCCCCCCCCCCCCC(=O)SCCNC(=O)CCNC(=O)[C@H](O)C(C)(C)COP(=O)(O)OP(=O)(O)OC[C@H]1O[C@@H](n2cnc3c(N)ncnc32)[C@H](O)[C@@H]1OP(=O)(O)O` [18:0-CoA, stearoyl-CoA], the “Δ9-desaturase activity towards 18:0-CoA relative to 16:0-CoA” value (mSCD4) is reported as 2.0 fold, the “utilization of 18:0-CoA relative to 16:0-CoA” value (hSCD5) is reported as 6 fold and the “Δ9-desaturase activity towards 18:0-CoA relative to 16:0-CoA” value (mSCD1) is reported as 2.2 fold. The “Δ9-desaturase activity towards 18:0-CoA relative to 16:0-CoA” value (hSCD1) was 2.2 fold and the “Δ9-desaturase activity towards 18:0-CoA relative to 16:0-CoA” value (mSCD2) was 1.6 fold.
